The species entered for the experiment is Rattus norvegicus. In words: Antiobesity activity in Sprague-Dawley rat assessed as reduction in cumulative food intake. Format: functional, organism-based.

Calls of active or inactive are those of the source. The rule behind the calls is not given here.

For `FC(F)(F)CCc1ccnc2c1CC[C@@H]1CNCCN21`, the result was Active.

The values are drawn from ChEMBL document CHEMBL4196226, “5-HT2C Receptor Agonists for the Treatment of Obesity” (ACS Med Chem Lett, 2018).
